Results published in PubChem BioAssay (NCI).
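Cells were grown in 96-well plates and exposed to each compound for 48 hours at five concentrations; endpoints were interpolated linearly between bracketing concentrations, or set to the highest concentration if not reached. Abbreviation: GI50, concentration required for 50% inhibition of growth. TGI marks complete inhibition of growth.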

What was measured:
Assay in all cases: growth of human tumour cells (NCI), 48 h
[1] = tested on: M14 melanoma
[2] = tested on: A549 NSCLC
[3] = tested on: SR leukemia
[4] = tested on: HCT-15 colon
[5] = tested on: SK-OV-3 ovarian
[6] = tested on: HCC-2998 colon
[7] = tested on: OVCAR-5 ovarian
[8] = tested on: SF-539 CNS
[9] = tested on: HT29 colon
[10] = tested on: NCI/ADR-RES ovarian
[11] = tested on: 786-0 renal
[12] = tested on: UACC-257 melanoma
[13] = tested on: OVCAR-4 ovarian
[14] = tested on: MALME-3M melanoma
[15] = tested on: HOP-62 NSCLC
[16] = tested on: HL-60(TB) leukemia
[17] = tested on: OVCAR-8 ovarian
[18] = tested on: MDA-MB-435
[19] = tested on: SK-MEL-2 melanoma
[20] = tested on: SF-268 CNS
[21] = tested on: OVCAR-3 ovarian
[22] = tested on: NCI-H460 lung
[23] = tested on: K-562 leukemia
[24] = tested on: MDA-MB-231 breast
[25] = tested on: UACC-62 melanoma
[26] = tested on: ACHN renal
[27] = tested on: HCT-116 colon
[28] = tested on: HS 578T breast
[29] = tested on: SW-620 colon
[30] = tested on: COLO 205 colon
[31] = tested on: SN12C renal
[32] = tested on: CAKI-1 renal
[33] = tested on: UO-31 renal
[34] = tested on: SF-295 CNS
[35] = tested on: A498 renal
[36] = tested on: TK-10 renal
[37] = tested on: U251 CNS
[38] = tested on: SK-MEL-5 melanoma
[39] = tested on: KM12 colon
[40] = tested on: T-47D breast
[41] = tested on: SNB-19 CNS
[42] = tested on: BT-549 breast
[43] = tested on: PC-3 prostate
[44] = tested on: RPMI-8226 leukemia
[45] = tested on: DU-145 prostate
[46] = tested on: HOP-92 NSCLC
[47] = tested on: EKVX NSCLC
[48] = tested on: SNB-75 CNS
[49] = tested on: IGROV1 ovarian
[50] = tested on: NCI-H226 lung
[51] = tested on: SK-MEL-28 melanoma
[52] = tested on: NCI-H522 lung
[53] = tested on: NCI-H23 lung
[54] = tested on: MOLT-4 leukemia
[55] = tested on: CCRF-CEM leukemia
[56] = tested on: MCF7 breast
[57] = tested on: LOX IMVI melanoma
[58] = tested on: RXF 393 renal

In the case of COC(=O)c1cc2c(cc1Cl)SC1=NN(C)S(=O)N1S2(=O)=O (configuration not stated), the GI50 [1] was greater than 100 µM, the TGI [1] was greater than 100 µM and the GI50 [2] was greater than 100 µM. It also gave a TGI [2] greater than 100 µM, a GI50 [3] greater than 100 µM and a TGI [3] greater than 100 µM. For the same molecule, the GI50 [4] was greater than 100 µM, the TGI [4] was greater than 100 µM and the GI50 [5] was greater than 100 µM. For the same molecule, the TGI [5] was greater than 100 µM, the GI50 [6] was greater than 100 µM and the TGI [6] was greater than 100 µM. It also gave a GI50 [7] greater than 100 µM, a TGI [7] greater than 100 µM and a GI50 [8] greater than 100 µM. The TGI [8] was greater than 100 µM, the GI50 [9] was greater than 100 µM and the TGI [9] was greater than 100 µM. For the same molecule, the GI50 [10] was greater than 100 µM, the TGI [10] was greater than 100 µM and the GI50 [11] was greater than 100 µM. For the same molecule, the TGI [11] was greater than 100 µM, the GI50 [12] was greater than 100 µM and the TGI [12] was greater than 100 µM. It also gave a GI50 [13] greater than 100 µM, a TGI [13] greater than 100 µM and a GI50 [14] greater than 100 µM. The TGI [14] was greater than 100 µM, the GI50 [15] was greater than 100 µM and the TGI [15] was greater than 100 µM. It also gave a GI50 [16] greater than 100 µM, a TGI [16] greater than 100 µM and a GI50 [17] greater than 100 µM. For the same molecule, the TGI [17] was greater than 100 µM, the GI50 [18] was greater than 100 µM and the TGI [18] was greater than 100 µM. It also gave a GI50 [19] greater than 100 µM, a TGI [19] greater than 100 µM and a GI50 [20] greater than 100 µM. It also gave a TGI [20] greater than 100 µM, a GI50 [21] greater than 100 µM and a TGI [21] greater than 100 µM. For the same molecule, the GI50 [22] was greater than 100 µM, the TGI [22] was greater than 100 µM and the GI50 [23] was greater than 100 µM. It also gave a TGI [23] greater than 100 µM, a GI50 [24] greater than 100 µM and a TGI [24] greater than 100 µM. It also gave a GI50 [25] greater than 100 µM, a TGI [25] greater than 100 µM and a GI50 [26] greater than 100 µM. It also gave a TGI [26] greater than 100 µM, a GI50 [27] greater than 100 µM and a TGI [27] greater than 100 µM. The GI50 [28] was greater than 100 µM, the TGI [28] was greater than 100 µM and the GI50 [29] was greater than 100 µM. For the same molecule, the TGI [29] was greater than 100 µM, the GI50 [30] was greater than 100 µM and the TGI [30] was greater than 100 µM. The GI50 [31] was greater than 100 µM, the TGI [31] was greater than 100 µM and the GI50 [32] was greater than 100 µM. For the same molecule, the TGI [32] was greater than 100 µM, the GI50 [33] was 70.2 µM and the TGI [33] was greater than 100 µM. The GI50 [34] was greater than 100 µM, the TGI [34] was greater than 100 µM and the GI50 [35] was 75 µM. The TGI [35] was greater than 100 µM, the GI50 [36] was greater than 100 µM and the TGI [36] was greater than 100 µM. For the same molecule, the GI50 [37] was greater than 100 µM, the TGI [37] was greater than 100 µM and the GI50 [38] was greater than 100 µM. It also gave a TGI [38] greater than 100 µM, a GI50 [39] greater than 100 µM and a TGI [39] greater than 100 µM. It also gave a GI50 [40] greater than 100 µM, a TGI [40] greater than 100 µM and a GI50 [41] greater than 100 µM. For the same molecule, the TGI [41] was greater than 100 µM, the GI50 [42] was greater than 100 µM and the TGI [42] was greater than 100 µM. It also gave a GI50 [43] greater than 100 µM, a TGI [43] greater than 100 µM and a GI50 [44] greater than 100 µM. The TGI [44] was greater than 100 µM, the GI50 [45] was greater than 100 µM and the TGI [45] was greater than 100 µM. It also gave a GI50 [46] of 53.7 µM, a TGI [46] greater than 100 µM and a GI50 [47] greater than 100 µM. It also gave a TGI [47] greater than 100 µM, a GI50 [48] of 85.9 µM and a TGI [48] greater than 100 µM. It also gave a GI50 [49] greater than 100 µM, a TGI [49] greater than 100 µM and a GI50 [50] greater than 100 µM. It also gave a TGI [50] greater than 100 µM, a GI50 [51] greater than 100 µM and a TGI [51] greater than 100 µM. For the same molecule, the GI50 [52] was greater than 100 µM, the TGI [52] was greater than 100 µM and the GI50 [53] was greater than 100 µM. It also gave a TGI [53] greater than 100 µM, a GI50 [54] greater than 100 µM and a TGI [54] greater than 100 µM. For the same molecule, the GI50 [55] was greater than 100 µM, the TGI [55] was greater than 100 µM and the GI50 [56] was greater than 100 µM. The TGI [56] was greater than 100 µM, the GI50 [57] was greater than 100 µM and the TGI [57] was greater than 100 µM.

Molecule CCCCCCCC(=O)OCCCC1[C@]2(C)CC[C@@]3(C)C([C@H](C)CCC=C(C)C)CC[C@]3(C)C2CC[C@]12OC2(C)C (some centres not stated) has a GI50 [1] greater than 100 µM, a TGI [1] greater than 100 µM and a GI50 [2] of 32.4 µM. It also gave a TGI [2] greater than 100 µM, a GI50 [3] of 22.6 µM and a TGI [3] of 45.7 µM. It also gave a GI50 [4] of 29.4 µM, a TGI [4] greater than 100 µM and a GI50 [6] of 18.6 µM. The TGI [6] was 47.5 µM, the GI50 [7] was greater than 100 µM and the TGI [7] was greater than 100 µM. The GI50 [8] was 26.5 µM, the TGI [8] was 59.5 µM and the GI50 [9] was 42.3 µM. The TGI [9] was greater than 100 µM, the GI50 [10] was 35 µM and the TGI [10] was greater than 100 µM. The GI50 [11] was greater than 100 µM, the TGI [11] was greater than 100 µM and the GI50 [12] was 68.2 µM. The TGI [12] was greater than 100 µM, the GI50 [13] was 78.9 µM and the TGI [13] was greater than 100 µM. It also gave a GI50 [14] greater than 100 µM, a TGI [14] greater than 100 µM and a GI50 [15] greater than 100 µM. It also gave a TGI [15] greater than 100 µM, a GI50 [16] of 28.5 µM and a TGI [16] of 67.4 µM. It also gave a GI50 [17] of 64 µM, a TGI [17] greater than 100 µM and a GI50 [18] of 36.6 µM. It also gave a TGI [18] greater than 100 µM, a GI50 [20] of 27.2 µM and a TGI [20] of 81.8 µM. It also gave a GI50 [21] of 24.9 µM, a TGI [21] of 65.2 µM and a GI50 [22] of 26.2 µM. The TGI [22] was 71 µM, the GI50 [23] was 44.1 µM and the TGI [23] was greater than 100 µM. It also gave a GI50 [24] of 10.8 µM, a TGI [24] of 34.6 µM and a GI50 [25] of 17.6 µM. It also gave a TGI [25] of 78 µM, a GI50 [26] of 22.9 µM and a TGI [26] of 45.4 µM. For the same molecule, the GI50 [27] was 52.2 µM, the TGI [27] was greater than 100 µM and the GI50 [28] was 40.3 µM. It also gave a TGI [28] greater than 100 µM, a GI50 [29] of 40.4 µM and a TGI [29] greater than 100 µM. It also gave a GI50 [30] of 39.7 µM, a TGI [30] greater than 100 µM and a GI50 [32] of 23.8 µM. The TGI [32] was 48.9 µM, the GI50 [33] was 31.9 µM and the TGI [33] was greater than 100 µM. For the same molecule, the GI50 [34] was 31.2 µM, the TGI [34] was greater than 100 µM and the GI50 [35] was greater than 100 µM. For the same molecule, the TGI [35] was greater than 100 µM, the GI50 [36] was 30.6 µM and the TGI [36] was greater than 100 µM. It also gave a GI50 [37] of 27.7 µM, a TGI [37] of 93.3 µM and a GI50 [38] of 33.9 µM. It also gave a TGI [38] greater than 100 µM, a GI50 [39] of 29.6 µM and a TGI [39] of 84.1 µM. It also gave a GI50 [40] of 35.7 µM, a TGI [40] greater than 100 µM and a GI50 [41] of 34.5 µM. It also gave a TGI [41] of 97.6 µM, a GI50 [42] of 88.6 µM and a TGI [42] greater than 100 µM. For the same molecule, the GI50 [43] was 30.2 µM, the TGI [43] was greater than 100 µM and the GI50 [44] was 36.4 µM. For the same molecule, the TGI [44] was greater than 100 µM, the GI50 [45] was 38.1 µM and the TGI [45] was greater than 100 µM. The GI50 [46] was 28.2 µM, the TGI [46] was greater than 100 µM and the GI50 [58] was 21.3 µM. It also gave a TGI [58] of 49.3 µM, a GI50 [47] of 49.7 µM and a TGI [47] greater than 100 µM. For the same molecule, the GI50 [48] was greater than 100 µM, the TGI [48] was greater than 100 µM and the GI50 [49] was 34.8 µM. It also gave a TGI [49] greater than 100 µM, a GI50 [50] of 22.8 µM and a TGI [50] of 92.3 µM. It also gave a GI50 [51] of 42.4 µM, a TGI [51] greater than 100 µM and a GI50 [52] of 35.1 µM. The TGI [52] was greater than 100 µM, the GI50 [53] was 23.1 µM and the TGI [53] was 61.7 µM. For the same molecule, the GI50 [54] was 22.1 µM, the TGI [54] was 57.1 µM and the GI50 [55] was 28.4 µM. It also gave a TGI [55] of 69.1 µM, a GI50 [56] of 34.1 µM and a TGI [56] greater than 100 µM.
